Experimental data published in patent US10577399B2, “Modified lantibiotics and methods of making and using the modified lantibiotics” (priority 2016, dated 2020).
Values after ≈ are worked out from the molar mass of the structure shown. Read-outs that look alike come from different tables or passages of the source. No end group written: not given here.

How the values were obtained:
[1] = system: M. luteus ATCC 10240; assay type: cell-based, Micrococcus luteus; conditions: for M. luteus ATCC 10240 MIC / M. luteus ATCC 10240 MLC: Table 11; for MIC (μg/mL) M. luteus: Table 7, chemically modified analogs
Procedure: (§1) Minimum Inhibitory Concentrations (MICs) were determined according to previously published protocol^31. A stock solution of the antibiotics tested was first suspended in 50% acetonitrile (ACN) at a concentration 640 μg/mL. This stock was subsequently diluted 2-fold until a final concentration 0.156 μg/mL was reached. Subsequently, 10 μl of each dilution was placed into a well on a 96 well microtiter plate. M. luteus ATCC 10240, S. pneumoniae, and B. subtilis PY79 were grown overnight in THyex at 37° C. Cultures were diluted in the morning to 0.1 OD600 and allowed to grow to 0.6 OD600. This culture was diluted a 100-fold in fresh THyex media and then 400 μl of this culture was added to 10 mL of fresh THyex. The suspension contains approximately 10^5 colony forming units (CFUs). The bacterial suspension (190 μL) was added to each well containing 10 μL of antibiotic suspension or solvent blank. […] Following the 15 minute pretreatment, 190 μL was added to each well as described above. The MIC is described as the […] concentration of antibiotic that prevented visible growth after 24 hours.
FIG. 11 illustrates the bioactivity of various core peptide mutants of mutacin 1130. The activity of the core mutant peptides is expressed as a ratio of the area of the zone of inhibition of each mutant strain to the area of the zone of inhibition of the wild-type strain against indicator strain of Micrococcus luteus. […] The deferred antagonism assay is an overlay assay of the indicator strain onto plates containing heat killed colonies of the mutacin producer strain after growing overnight. Core peptide mutants having inhibitory activity were isolated and the purified products were further evaluated by a standard minimum inhibitory concentration (MIC) assay.

[2] = system: S. pneumoniae ATCC 27336; assay type: cell-based, Streptococcus pneumoniae; conditions: for S. pneumonia ATCC 27336 MIC / S. pneumonia ATCC 27336 MLC: Table 11; for MIC (μg/mL) S. pneumoniae: Table 7, S. pneumoniae ATCC 27336
Procedure: as §1, with “hours. […]” for “hours.”

[3] = system: S. aureus ATCC 25923; assay: MIC/MLC assay against S. aureus; assay type: cell-based, Staphylococcus aureus; conditions: Table 11
[4] = system: C. accolens ATCC 49725; assay: MIC/MLC assay against C. accolens ATCC 49725; assay type: cell-based; conditions: THyex broth with 1% Tween 80
[5] = system: C. accolens KPL 1818; assay: MIC/MLC assay against C. accolens KPL 1818; assay type: cell-based; conditions: THyex broth with 1% Tween 80
[6] = listed as diaminoheptane conjugate

M. luteus ATCC 10240 MIC [1] [micrograms per milliliter] | S. pneumonia ATCC 27336 MIC [2] [micrograms per milliliter] | S. aureus ATCC 25923 MIC [3] [micrograms per milliliter] | C. accolens ATCC 49725 MIC [4] [micrograms per milliliter] | C. accolens KPL 1818 MIC [5] [micrograms per milliliter] | Compound | M. luteus ATCC 10240 MLC [1] [micrograms per milliliter] | S. pneumonia ATCC 27336 MLC [2] [micrograms per milliliter] | S. aureus ATCC 25923 MLC [3] [micrograms per milliliter] | C. accolens ATCC 49725 MLC [4] [micrograms per milliliter] | C. accolens KPL 1818 MLC [5] [micrograms per milliliter] | MIC (μg/mL) M. luteus ([1]; listed as chlorophenylalanine conjugate) [µg/mL] | MIC (μg/mL) M. luteus [1] [µg/mL] | MIC (μg/mL) S. pneumoniae [2] [µg/mL] | MIC (μg/mL) M. luteus [1, 6] [µg/mL] | MIC (μg/mL) S. pneumoniae [2, 6] [µg/mL] | MIC (μg/mL) S. pneumoniae ([2]; listed as di-chlorophenylalanine conjugate) [µg/mL]
0.25 | 2 | >32 | 0.125 | 0.5 | A12T:T14G: core peptide mutant of mutacin 1140, positions 12, 14 replaced by Threonine and Glycine (FKSWSLCTPGCTRGGSFNSYCC; ends and bridges not checked; cysteine pairing not given here; UniProt O68586 42-63, looked up, variant A12T T14G) | 0.25 | 2 | >32 | 0.25 | 1 |  |  |  |  |  | 
 |  |  |  |  | C=C1NC(=O)[C@H](Cc2c[nH]c3ccccc23)NC(=O)[C@H](NC(=O)[C@H](CCCCN)NC(=O)[C@@H](N)Cc2ccccc2)CSC[C@@H](C(=O)N[C@H]2C(=O)N3CCC[C@H]3C(=O)NCC(=O)N[C@H](C(=O)N[C@@H](C)C(=O)N[C@@H](CCCNC(=N)N)C(=O)N/C(=C\C)C(=O)NCC(=O)N[C@@H]3CSC[C@@H]4NC(=O)[C@H](Cc5ccc(O)cc5)NC(=O)[C@@H](CSC[C@@H](C(=O)NCc5ccc(Cl)cc5)NC4=O)NC(=O)[C@H](CC(N)=O)NC(=O)[C@H](Cc4ccccc4)NC3=O)CS[C@H]2C)NC(=O)[C@H](CC(C)C)NC1=O [Mutacin 1140 - chlorophenylalanine] |  |  |  |  |  | 1.0 (≈ 0.411 µM) |  |  |  |  | 
0.5 | 2 | 8 | 1 | 0.5 | S5G:T14G: core peptide mutant of mutacin 1140, positions 5, 14 replaced by Glycine and Glycine (FKSWGLCTPGCARGGSFNSYCC; ends and bridges not checked; cysteine pairing not given here; UniProt O68586 42-63, looked up, variant S5G T14G) | 0.5 | 2 | 16 | 1 | 1 |  |  |  |  |  | 
4 | 2 | >32 | >4 | >4 | S5T: core peptide mutant of mutacin 1140, Serine 5 replaced by Threonine (FKSWTLCTPGCARTGSFNSYCC; UniProt O68586 42-63, looked up, variant S5T) [Mutant S5T] | 4 | 2 | >32 | >4 | >4 |  |  |  |  |  | 
2 | 8 | >32 | >4 | >4 | S5G:R13A:T14A: core peptide mutant of mutacin 1140, positions 5, 13 and 14 replaced by Glycine, Alanine and Alanine (FKSWGLCTPGCAAAGSFNSYCC; ends and bridges not checked; cysteine pairing not given here; UniProt O68586 42-63, looked up, variant S5G R13A T14A) | 16 | >16 | >32 | >4 | >4 |  |  |  |  |  | 
0.125 | 0.125 | 16 |  |  | S5A:A12S un-dehydrated: core peptide mutant of mutacin 1140, positions 5, 12 replaced by Alanine and Serine; un-dehydrated form (FKSWALCTPGCSRTGSFNSYCC; ends and bridges not checked; cysteine pairing not given here; UniProt O68586 42-63, looked up, variant S5A A12S) | 0.25 | 0.125 | 16 |  |  |  |  |  |  |  | 
 |  |  |  |  | C=C1NC(=O)[C@H](Cc2c[nH]c3ccccc23)NC(=O)[C@H](NC(=O)[C@H](CCCCN)NC(=O)[C@@H](N)Cc2ccccc2)CSC[C@@H](C(=O)N[C@H]2C(=O)N3CCC[C@H]3C(=O)NCC(=O)N[C@H](C(=O)N[C@@H](C)C(=O)N[C@@H](CCCNC(=N)N)C(=O)N/C(=C\C)C(=O)NCC(=O)N[C@@H]3CSC[C@@H]4NC(=O)[C@H](Cc5ccc(O)cc5)NC(=O)[C@@H](CSC[C@@H](C(=O)NC)NC4=O)NC(=O)[C@H](CC(N)=O)NC(=O)[C@H](Cc4ccccc4)NC3=O)CS[C@H]2C)NC(=O)[C@H](CC(C)C)NC1=O [Mutacin 1140 - methylamine] |  |  |  |  |  |  | 0.125 (≈ 0.0538 µM) | 0.5 (≈ 0.215 µM) |  |  | 
 |  |  |  |  | C=C1NC(=O)[C@H](Cc2c[nH]c3ccccc23)NC(=O)[C@H](NC(=O)[C@H](CCCCN)NC(=O)[C@@H](N)Cc2ccccc2)CSC[C@@H](C(=O)N[C@H]2C(=O)N3CCC[C@H]3C(=O)NCC(=O)N[C@H](C(=O)N[C@@H](C)C(=O)N[C@@H](CCCNC(=N)N)C(=O)N/C(=C\C)C(=O)NCC(=O)N[C@@H]3CSC[C@@H]4NC(=O)[C@H](Cc5ccc(O)cc5)NC(=O)[C@@H](CSC[C@@H](C(=O)NCCCCCCCN)NC4=O)NC(=O)[C@H](CC(N)=O)NC(=O)[C@H](Cc4ccccc4)NC3=O)CS[C@H]2C)NC(=O)[C@H](CC(C)C)NC1=O [Mutacin 1140 - diaminoheptane] |  |  |  |  |  |  | 0.25 (≈ 0.103 µM) |  | 0.5 (≈ 0.206 µM) | 2.0 (≈ 0.825 µM) | 
 |  |  |  |  | C=C1NC(=O)[C@H](Cc2c[nH]c3ccccc23)NC(=O)[C@H](NC(=O)[C@H](CCCCN)NC(=O)[C@@H](N)Cc2ccccc2)CSC[C@@H](C(=O)N[C@H]2C(=O)N3CCC[C@H]3C(=O)NCC(=O)N[C@H](C(=O)N[C@@H](C)C(=O)N[C@@H](CCCNC(=N)N)C(=O)N/C(=C\C)C(=O)NCC(=O)N[C@@H]3CSC[C@@H]4NC(=O)[C@H](Cc5ccc(O)cc5)NC(=O)[C@@H](CSC[C@@H](C(=O)NCc5ccc(Cl)c(Cl)c5)NC4=O)NC(=O)[C@H](CC(N)=O)NC(=O)[C@H](Cc4ccccc4)NC3=O)CS[C@H]2C)NC(=O)[C@H](CC(C)C)NC1=O [Mutacin 1140 - di-chlorophenylalanine] |  |  |  |  |  |  |  |  |  |  | 8.0 (≈ 3.24 µM)
